Data: patent US20110098240A1, “PHARMACEUTICAL COMPOSITION COMPRISING A SGLT2 INHIBITOR IN COMBINATION WITH A DPP-IV INHIBITOR” (BOEHRINGER INGELHEIM INTERNATIONAL GMBH, priority 2007, published 2011)

Assays:
[1] = oral glucose tolerance test in overnight fasted rats; type: in vivo, male Sprague Dawley rats (Crl:CD(SD)); details: single oral dose 30 min before oral glucose load 2 g/kg; Cpd. A 1 mg/kg, dapagliflozin 0.3 mg/kg, combination at same doses; non-diabetic rats, n=5/group; blood glucose up to 120 min
Method: The following example show the beneficial effect on glycemic control of the combination of a SGLT2 inhibitor and a DPP IV inhibitor according to the present invention as compared to the respective monotherapies. All experimental protocols concerning the use of laboratory animals are reviewed by a federal Ethics Committee and approved by governmental authorities. According to this example an oral glucose tolerance test is performed in overnight fasted male Sprague Dawley rats (Crl:CD(SD)) with a body weight of about 200 g. A pre-dose blood sample is obtained by tail bleed. Blood glucose is measured with a glucometer, and the animals are randomized for blood glucose (n=5/group). Subsequently, the groups receive a single oral administration of either vehicle alone (0.5% aqueous hydroxyethylcellulose containing 0.015% Polysorbat 80) or vehicle containing either the SGLT2 inhibitor or the DPPIV inhibitor or the combination of the SGLT2 inhibitor with the DPPIV inhibitor. The animals receive an oral glucose load (2 g/kg) 30 min after compound administration. Blood glucose is measured in tail blood 30 min, 60 min, 90 min, and 120 min after the glucose challenge. Glucose excursion is quantified by calculating the reactive glucose AUC. The data are presented as mean±S.E.M. Statistical comparisons are conducted by Student's t test.
“Cpd. […]

[2] = metformin on its own, in the diabetic; cited from earlier work

Compound	reduction of glucose excursion (reactive glucose AUC) [1] [%]	average improvement in the HbA1c value [2]
CC#CCn1c(N2CCC[C@@H](N)C2)nc2c1c(=O)n(Cc1nc(C)c3ccccc3n1)c(=O)n2C [Cpd. A, 1-[(4-methyl-quinazolin-2-yl)methyl]-3-methyl-7-(2-butyn-1-yl)-8-(3-(R)-amino-piperidin-1-yl)-xanthine]	25	–
CN(C)C(=N)N=C(N)N [metformin]	–	1.0-1.5%
CCOc1ccc(Cc2cc([C@@H]3O[C@H](CO)[C@@H](O)[C@H](O)[C@H]3O)ccc2Cl)cc1 [dapagliflozin, Dapagliflozin]	31	–
